Results: US12029777B2, “Serine proteinase inhibitors: Serp-1 and Serp-1 RCL-derived peptides effect on microbiome composition and uses thereof” (ARIZONA BOARD OF REGENTS ON BEHALF OF ARIZONA STATE …, priority 2019, dated 2024)
“Also recorded” adds a separate entry of the source.

B1: Serp-1: secreted myxomavirus-derived serine protease inhibitor (serpin), purified protein, SEQ ID NO: 1 (protein)
chain: MKYLVLVLCLTSCACRDIGLWTFRYVYNESDNVVFSPYGLTSALSVLRIAAGGNTKREIDVPESVVEDSDAFLALRELFVDASVPLRPEFTAEFSSRFNTSVQRVTFNSENVKDVINSYVKDKTGGDVPRVLDASLDRDTKMLLLSSVRMKTSWRHVFDPSFTTDQPFYSGNVTYKVRMMNKIDTLKTETFTLRNVGYSVTELPYKRRQTAMLLVVPDDLGEIVRALDLSLVRFWIRNMRKDVCQVVMPKFSVESVLDLRDALQRLGVRDAFDPSRADFGQASPSNDLYVTKVLQTSKIEADERGTTASSDTAITLIPRNALTAIVANKPFMFLIYHKPTTTVLFMGTIT
modifications: Serp-1 recombinant polypeptide

Assays:
[1] = test system: MHV-68; assay: Survival after lethal intraperitoneal MHV-68 infection of IFNγR−/− mice; type: in vivo; conditions: for survival after MHV-68 infection (modified S-7 peptides): MHV-68 infection model; for survival at 150 days: 100 ng/g IP injections for 30 days, no antibiotics, MHV-68 infected IFNγR−/− mice; for median survival: 10 days antibiotic pre-treatment, then MHV-68 infection and 30 days IP treatment; for efficacy after antibiotic treatment versus saline treatment after antibiotics: +Abx vs Saline+Abx, survival
From the text: Animals. IFNγR^−/− mice (B6.129S7-Ifngr1^tm1Agt/J) were purchased from the Jackson Laboratory (Bar Harbor, ME, USA). Animals were housed in barrier conditions at the University of Florida Animal Care Services vivarium and bred under specific pathogen-free conditions. Mice were weaned at 3 weeks, maintained on a 12-hour light-dark cycle and were fed water and standard rodent chow ad libitum.
Antibiotic treatment. At 4 weeks of age, IFNγR^−/− mouse cohorts were transferred from the ABSL1 colony to a separate, ABSL2 colony. Gut microbiome suppression was achieved by replacing standard drinking water with autoclaved reverse osmosis water (obtained from the same animal care facility) containing an antibiotic cocktail (Table 1) composed of Streptomycin (2 g/L), Gentamicin (0.5 g/L), Bacitracin (1 g/L) and Ciprofloxacin (0.125 g/L) for 10 days. One day (24 hours) prior to infection, medicated water was replaced with standard animal care facility water, which was maintained for the remainder of the experiment.
MHV-68 infection. On day 11 (after 10 days of antibiotics) mice (5 weeks old) were infected with MHV-68 at a dose of 12.5×10^6 PFU in 0.1 mL DMEM by intraperitoneal (IP) injection as previously described22,25,27,30. Mice were returned to the colony and monitored for signs of distress for the duration of the experiment. Mice were either followed for 150 days to determine survival or euthanized at 3 days post-infection and organs harvested into formalin for histology or RNAlater (Thermo Scientific, USA) for microbiome analyses. Details on the numbers of MHV-68-infected mice in this study are detailed in Table 2.
Statistical analysis. Survival and pathology statistics were analyzed with GraphPad Prism v8.0.1. Kaplan-Meier survival statistics were calculated using Log-rank (Mantel-Cox) testing. For visualization, individual comparison curves are presented. Lung pathology statistics were compared using a Two-Way ANOVA with a Fisher's LSD or Tukey's post-hoc test. Bars are mean±standard error. P-value less than 0.05 was considered significant. *p<0.05, **p<0.01, ***p<0.001, ****p<0.0001; n.s. is not significant.
MHV-68 infections establish latency with chronic infection in wildtype mice, causing only flu-like symptoms. Conversely, intraperitoneal infection of mice with underlying immune deficiency, as for IFNγR^−/− mice, results in a lethal large vessel vasculitis, colitis and hemorrhagic pneumonia with early mortality. Intranasal infection, an alternative model for MHV-68, is not a model for severe vasculitic syndromes. This intraperitoneal infection model of vasculitis has been used to study the pathogenesis of gammaherpesvirus host-pathogen interactions, as well as to investigate the potential for anti-inflammatory treatment of associated inflammatory vasculitic syndromes. Intraperitoneal infection of IFNγR−/− mice with 12.5×10^6 pfu was performed with follow-up for 150 days to determine survival rates. MHV-68 infection with administration of control saline treatment alone for 30 days was lethal, with a median survival of 41 days. […] Thus, Serp-1 and S-7 protect IFNγR−/− mice after lethal MHV-68 infection.
The potential for dependence of Serp-1 and S-7 therapeutic efficacy on the gut bacterial microbiome in MHV-68 infected IFNγR^−/− mice was investigated. Mice were treated with medicated drinking water (Table 1) for 10 days, placed on normal water for 24 hours, then infected with MHV-68 and concurrently treated for 30 days with either Serp-1 or S-7 by IP injection. Mice were followed for survival or 3-day follow-up (FIG. 2A).

[2] = test system: MHV-68; assay: Lung histopathology and quantitative morphometry at 3 days after MHV-68 infection; type: in vivo, mice; conditions: for severe pulmonary pathology (consolidation and inflammation): absence of antibiotics, vs saline; for severe pulmonary pathology (consolidation and inflammation) / early lung pathology after antibiotic treatment: 3-day follow-up; for alveolar wall thickness: no antibiotics, versus saline-treated controls; for alveolar lumen area: without antibiotic pre-treatment, compared to saline-treated controls
Description: Histopathology. Mice were euthanized at 3 days follow-up after infection by carbon dioxide asphyxiation followed by cervical dislocation. Organs were harvested and fixed in 10% neutral buffered formalin. Samples were dehydrated through graded alcohol, paraffin-embedded, sectioned into 4-6 μm ribbons, captured on charged glass and dried overnight at 37° C. prior to processing for histopathology. Slides were rehydrated, stained with Gill's hematoxylin No. 3 and Eosin Y (H&E) according to standard procedure, dehydrated and mounted in Cytoseal XYL (Thermo Fisher Scientific, USA).
Quantitative morphometry. H&E-stained aorta, lung and colon sections were imaged with a 20×/0.5NA objective on an Olympus BX51 microscope equipped with an Olympus DP74 camera operated by cellSens Dimensions v1.16 software. Objective-calibrated measurements of alveolar septal thickness and lumen area were collected using cellSens Dimensions. At least 50 measurements were collected and averaged for each mouse, and at least three mice were examined for each group. Images were processed for visualization in figures using ImageJ/FIJI v1.52i92.

[3] = test system: CD3+, CD4+ and CD8+ cells in the lungs; assay: Immunohistochemistry of CD3+, CD4+, CD8+ cells in lungs at 3 days after MHV-68 infection; type: in vivo, mice; conditions: for CD3 infiltration-promoting effect and CD8 bias after antibiotic treatment: after antibiotic depletion of gut microbiome; for CD8+ staining in lungs / detectable CD3+ cells in the lungs / pulmonary CD4+ cells: no antibiotics, 3-day follow-up
Description: (§1) Immunohistochemistry. FFPE blocks containing lung tissue were sectioned into 4-6 μm ribbons, captured on charged glass and dried overnight at 37° C. prior to processing. Slides were rehydrated and epitopes retrieved by boiling in sodium citrated buffer. Endogenous peroxidases were quenched with 3% hydrogen peroxide, slides were blocked in 5% bovine serum albumin in TBS/0.1% Tween 20 and sections were probed with rabbit polyclonal antibody against CD3 (Abcam ab5690; 1:200), CD4 (Abcam ab183685; 1:1000) or CD8 (Abcam ab209775; 1:2000). For MHV-68 detection, 1:500 rabbit anti-serum or pre-immune serum (as control) were used for immunostaining (kind gift of Dr. H. W. Virgin 1119). 1:500 goat anti-rabbit HRP was used for secondary staining (Jackson Immuno Research 111-035-144). […] Sections were imaged with a 40×/0.75NA objective.

[4] = test system: MHV-68; assay: MHV-68 antigen immunostaining in lungs at 3 days after infection; type: in vivo, mice; conditions: for MHV-68 antigen levels in the lungs: without antibiotic treatment, 3-day follow-up
Description: as §1

[5] = target: uPA (Homo sapiens, UniProt P00749); assay: In vitro uPA substrate conversion assay; type: biochemical; conditions: presence of the antibiotic cocktail

| Molecule | survival after MHV-68 infection (modified S-7 peptides) [1] | survival at 150 days [1] | median survival [1] | efficacy after antibiotic treatment versus saline treatment after antibiotics [1] | severe pulmonary pathology (consolidation and inflammation) [2] | early lung pathology after antibiotic treatment [2] | alveolar lumen area protection after antibiotic treatment ([2]; after antibiotics) | reduction in alveolar wall thickness after treatment with antibiotics ([2]; after antibiotics) | alveolar wall thickness [2] | alveolar lumen area [2] | CD3 infiltration-promoting effect and CD8 bias after antibiotic treatment [3] | CD8+ staining in lungs [3] | detectable CD3+ cells in the lungs [3] | pulmonary CD4+ cells [3] | decrease in detectable MHV68 after antibiotic pre-treatment [4] | MHV-68 antigen levels in the lungs [4] | inhibition of uPA activity in presence of broad-spectrum antibiotic cocktail [5] |
| --- | --- | --- | --- | --- | --- | --- | --- | --- | --- | --- | --- | --- | --- | --- | --- | --- | --- |
| GTTASSDTAITDEPR (Modified S7 peptide MPS7-9) | improved survival |  |  |  |  |  |  |  |  |  |  |  |  |  |  |  |  |
| GTTASSDTAITLEPR (Modified S-7 peptide MPS7-8) | improved survival |  |  |  |  |  |  |  |  |  |  |  |  |  |  |  |  |
| GTTASSDTAITLIPR (Reactive Center Loop Polypeptide sequence of for a serine protease inhibitor) [S-7] |  | 60% | 18 days | not significantly different | considerably reduced | markedly worse | nullified any level of protection | lost | significant reduction | significantly increased | loss | significant increases | significantly increased | no appreciable effect | partially reversed | significantly reduced |  |
| B1 |  | 60% | 19 days | not significantly different | considerably reduced | markedly worse |  | lost | significant reduction | trend toward an increase | loss | strong trend towards increase | trended towards increasing | no appreciable effect | partially reversed | significantly reduced | unaffected; also recorded: not affected |
